Source: patent publication EP2045247B1, “Compounds for the inhibition of histone deacetylase” (NatureWise Biotech & Medicals Corporation, priority 2007, dated 2009)

Tests used:
rat C6 glioma cells = test: Cell cycle analysis of C6 glioma cells, DNA content by PI staining and FACScan cytometry; assay type: cell-based; details: 0, 2.5, 5 and 10 µg/mL, 72 hours (Fig. 2)
Protocol: (§1) 1×10^6 of rat C6 glioma cells were treated with various concentrations of NBM-HD-1 (0 µg/mL, 2.5 µg/mL, 5 µg/mL, and 10 µg/mL) for 72 hours. The treated cells were trysinized and collected. The cells were resuspended in 200 µL PBS and then fixed by adding 800 µL of cold 100% ethanol. The resulting cells were fixed overnight at -20[…]. The cell pellets were collected by centrifugation, resuspended in 1 mL of hypotonic buffer (0.5% Triton X-100 in PBS and 1 µg/mL RNase A), and incubated at 37 °C for 30 minutes. Then, 1 mL of PI solution (50 µg/mL) was added to the resulting cell pellets. The mixture was allowed to stand at 4[…] for 30 min. The DNA amounts of the cells were analyzed by FACScan Cytometry (Becton Dickinson) (see Fig. 2).

acetylated histone H4 = test: Western blotting of hyperacetylated histone H4 in C6 glioma cell lysates; assay type: cell-based, rat; details: C6 glioma cells
Protocol: Accumulation of hyperacetylated histone H4 was analyzed in the cell lysates by using Western Blotting and the antibody directed against acetylated histone H4 (Upstate). The C6 glioma cells were seeded at a density of 1×10^6 per 10cm culture dish. After 24 hours, the cells were treated with 10 µg/mL of NBM-HD-1 or 4mM sodium butyrate for several hours. The whole-cell lysates were prepared by using denaturing SDS sample buffer and then separated on 15% SDS-polyacrylamide gels. […] The amount of acetylated histones was hardly detectable in untreated C6 glioma cells. The amount of acetylated histone H4 of the cells treated with 4mM sodium butyrate for 2 hours increased. Sodium butyrate was then removed from the culture medium. After 6 hours, the amount of acetylated histone H4 decreased. The accumulation of acetylated histone H4 increased in the cells treated with NBM-HD-1 for 2 hours. […] The highest histone acetylation appeared at 6 hours after the compound had been removed. […] Because NBM-HD-1 is more hydrophobic than sodium butyrate, NBM-HD-1 can be retained in the cells longer than sodium butyrate and continuously induce the acetylation of histone H4.

HDAC = HDAC activity assay (fluorometric kit) on nuclear extracts of treated C6 glioma cells; assay type: cell-based, rat; details: C6 glioma cells treated 24 hours, nuclear extract, fluorescence (Fig. 6)
Protocol: The C6 glioma cells were treated with different doses of NBM-HD-1 and sodium butyrate (SB). After 24 hours, the cells were harvested to extract the nuclear proteins by NucBuster™ Protein Extraction Kit (Novagen) as described by the manufacturer's instructions. These extracts were then used in HDAC Activity Assay Kit (Calbiochem) to analyze their HDAC (histone deacetylase) inhibition activities. The HDAC fluorometric substrate, which comprises an acetylated lysine side chain, was incubated with extracted nuclear protein first. Deacetylation of the substrate sensitized the substrate, so that, in the second step, treatment with the Lysine Developer produced a fluorophore. The fluorophore can easily be analyzed by using a fluorescence plate reader. […] Inhibition of HDAC has been implicated in the induction of differentiation in cancer cells. In this experiment, a well-known compound for HDAC inhibition, sodium butyrate, was used as a positive control.

[1] = test system: human giloblastoma DBTRG-05MG cancer cells; test: Inhibition of growth and change of morphology of DBTRG-05MG cells; assay type: cell-based
Protocol: The human giloblastoma DBTRG-05MG cancer cells were cultured in RPMI medium 1640 (Gibco) supplemented with penicillin G, streptomycin sulphate, 0.5 mM of L-glutamine and 10% fetal bovine serum (FBS; Gibco), 100mh/L sodium pyruvate (Gibco), and 1% NEAA (Gibco) at 37 °C, 5% CO2 and 95% relative humidity. For these experiments, the cells were seeded at a density of 3×10^5 per well of 6-well plates. After 24 hours, the cells were treated with different concentrations of NBM-HD-1 and 4 mM sodium butyrate. The cells were observed and counted after 72 hours. […] In 05MG cells (Fig. 7(A)), after incubation with 2.5 µg/mL (Fig. 7(A)-b), 5 µg/mL (Fig. 7(A)-c) and 10 µg/mL (Fig.7(A)-d) of NBM-HD-1 for 72 hours, the density of the cells reduced dramatically in comparison with that of the control group (Fig. 7(A)-a). The 05MG cells in the experimental group also changed to become longer than those in the control group.

MCF-7 cancer cells = test: Cell cycle analysis of MCF-7 cells by FACScan cytometry; assay type: cell-based, human; details: 0, 2.5, 5 and 10µg/mL, 72 hours (Fig. 9)
Protocol: as §1
MCF-7 cancer cells (1×10^6) in a 100-mm dish were treated with various concentrations of NBM-HD-1 (0, 2.5, 5, and 10µg/mL) or 4mM sodium butyrate for 72 hours. The samples were prepared following the steps mentioned in [0063]. The DNA of the cells was then analyzed by FACScan cytometry (Becton Dickinson). […] The percentage of G0/G1 phase increased from 74.46 to 92.55 in a dose-dependent manner.

cortical neurons = test: Neurite outgrowth of cortical neurons cultivated from fetal rat neural stem cells; assay type: cell-based, Wistar rat; details: 0.63 µg/mL
Protocol: The growth medium for the NSCs (neural stem cells) and cortical neurons was prepared by adding penicillin G, streptomycin and 0.5 mM of L-glutamine into a B-27 supplemented neurobasal medium (Gibco). The unborn fetus was taken out of the fetal sac in the abdominal cavity of a 17-day pregnant Wistar rat under anesthesia. The cerebral tissue was removed from the fetus and treated with 0.1 % trypsin solution at 25 °C for three minutes. After washing with PBS solution 3 times, the cells were dissociated by up and down mixing. The resulting solution was passed through a 70µm Nylon cell strainer (Falcon) in order to obtain the filtrate that contained cerebral cells. The filtrate was centrifuged at 1000 rpm for 10 minutes and the supernatant was aspirated. The resulting pellet was resuspended in the growth medium prepared as stated above. The resulting suspension contained NSCs.
The cells obtained from the suspension were cultivated in 6-well plates coated with 30 µg/ml of poly-D-lysine (Sigma) at the density of 75 cells/mm^2. The cells were cultured at 37 °C, 5% CO2 and 95% relative humidity. The growth media contained 0.63 µg/mL of NBM-HD-1 and the growth media with 1 µl of DMSO was used as the control. […]
After cultivation for 6 days, live cells were observed by microscope. The lengths of the neurites of the neurons in 6 different fields were measured and averaged. […]

SMILES: COc1cc2c(c(OC)c1CCC(C)(C)O)C(=O)C[C@@H](c1ccc(OC)c(OC)c1C/C=C(\C)CCCC(C)(C)O)O2 [NBM-HD-1]
- cell cycle (DNA contents) (rat C6 glioma cells): cell cycle arrest on the G0/G1 phase in a dose-dependent manner
- accumulation of acetylated histone H4, treated for 2 hours (acetylated histone H4; 10 µg/mL NBM-HD-1 or 4mM sodium butyrate, 2 hours (Fig. 5)): increased
- time of highest histone acetylation after the compound had been removed (acetylated histone H4; 10 µg/mL, 2 hours treatment, then removal): 6 h
- amount of acetylated histone H4 after removal of the compound from the culture medium (acetylated histone H4; up to 6 hours after removal (Fig. 5)): increased over time
- HDAC activity (HDAC): significantly inhibits HDAC activity
- morphology of 05MG cancer cells ([1]; 2.5, 5 and 10 µg/mL, 72 hours (Fig. 7(A))): change the morphology of 05MG cancer cells
- growth of 05MG cells ([1]; NBM-HD-1 2.5, 5 and 10 µg/mL, sodium butyrate 4 mM, 72 hours, density and cell counting (Fig. 7)): can inhibit the growth of 05MG cells in a dose-dependent manner
- S and G2/M phases of the cells (MCF-7 cancer cells): significantly decreased both S and G2/M phases of the cells in a dose-dependent manner
- average length of the neurites (cortical neurons; 6 days, 6 different fields, versus DMSO control (Fig. 12(B))): greater than that of the control group
- neurite outgrowth (cortical neurons; cultivation for 6 days (Fig. 12)): could promote the neurite outgrowth
